Experimental data taken from ChEMBL document CHEMBL1201862, “PubChem BioAssay data set” (2004).
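Following 48 hours of exposure in 96-well plates, responses at five concentrations were used to interpolate endpoints linearly. GI50: concentration for 50% inhibition of growth.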 Active and inactive are the calls of the source. No stated cut-off is given here; in the data, active = GI50 up to about 1.1 µM and inactive = higher.

Columns and labels:
Experiment in all cases: NCI-60 cell line screen, 48 h
786-0 = tested on: 786-0
A549 = tested on: A549
ACHN = tested on: ACHN
CAKI-1 = tested on: CAKI-1
CCRF-CEM = tested on: CCRF-CEM
COLO 205 = tested on: COLO 205
DLD-1 = tested on: DLD-1
DMS-273 = tested on: DMS-273
EKVX = tested on: EKVX
HCC 2998 = tested on: HCC 2998
HCT-15 = tested on: HCT-15
HOP-18 = tested on: HOP-18
HOP-62 = tested on: HOP-62
HT-29 = tested on: HT-29
IGROV-1 = tested on: IGROV-1
K562 = tested on: K562
KM-20L2 = tested on: KM-20L2
KM12 = tested on: KM12
LOX IMVI = tested on: LOX IMVI
LXFL 529 = tested on: LXFL 529
M14 = tested on: M14
M19-MEL = tested on: M19-MEL
MOLT-4 = tested on: MOLT-4
Malme-3M = tested on: Malme-3M
NCI-H226 = tested on: NCI-H226
NCI-H23 = tested on: NCI-H23
NCI-H460 = tested on: NCI-H460
NCI-H522 = tested on: NCI-H522
OVCAR-3 = tested on: OVCAR-3
OVCAR-4 = tested on: OVCAR-4
OVCAR-5 = tested on: OVCAR-5
OVCAR-8 = tested on: OVCAR-8
RPMI-8226 = tested on: RPMI-8226
RXF 631 = tested on: RXF 631
SF-268 = tested on: SF-268
SF-295 = tested on: SF-295
SF-539 = tested on: SF-539
SK-MEL-28 = tested on: SK-MEL-28
SK-MEL-2 = tested on: SK-MEL-2
SK-MEL-5 = tested on: SK-MEL-5
SK-OV-3 = tested on: SK-OV-3
SN12C = tested on: SN12C
SNB-19 = tested on: SNB-19
SNB-75 = tested on: SNB-75
SR = tested on: SR
SW-620 = tested on: SW-620
U-251 = tested on: U-251
UACC-257 = tested on: UACC-257
UACC-62 = tested on: UACC-62
UO-31 = tested on: UO-31
XF498 = tested on: XF498
A498 = tested on: A498
DMS-114 = tested on: DMS-114
HL-60 = tested on: HL-60
RXF 393 = tested on: RXF 393
TK-10 = tested on: TK-10

Measured: GI50

CO/S(=N/S(=O)(=O)c1ccccc1)c1ccccc1[N+](=O)[O-] (centres undefined)
inactive: 786-0 > 100 µM | A549 > 100 µM | ACHN > 100 µM | CAKI-1 > 100 µM | CCRF-CEM > 100 µM | COLO 205 > 100 µM | DLD-1 > 100 µM | DMS-273 > 100 µM | EKVX > 100 µM | HCC 2998 > 100 µM | HOP-18 > 100 µM | HOP-62 > 100 µM | HT-29 > 100 µM | IGROV-1 > 100 µM | K562 > 100 µM | KM-20L2 > 100 µM | KM12 > 100 µM | LOX IMVI > 100 µM | LXFL 529 > 100 µM | M14 > 100 µM | M19-MEL > 100 µM | MOLT-4 > 100 µM | Malme-3M > 100 µM | NCI-H226 > 100 µM | NCI-H23 > 100 µM | NCI-H460 > 100 µM | NCI-H522 > 100 µM | OVCAR-3 > 100 µM | OVCAR-4 > 100 µM | OVCAR-5 > 100 µM | OVCAR-8 > 100 µM | RPMI-8226 > 100 µM | RXF 631 > 100 µM | SF-268 > 100 µM | SF-295 > 100 µM | SF-539 > 100 µM | SK-MEL-28 > 100 µM | SK-MEL-2 > 100 µM | SK-MEL-5 > 100 µM | SK-OV-3 > 100 µM | SN12C > 100 µM | SNB-19 > 100 µM | SNB-75 > 100 µM | SR > 100 µM | SW-620 > 100 µM | U-251 > 100 µM | UACC-257 > 100 µM | UACC-62 > 100 µM | UO-31 > 100 µM | XF498 > 100 µM
> 100 µM: HCT-15

Cc1ccc(C2CC(c3ccc([N+](=O)[O-])cc3)=Nc3ccccc3S2)cc1 (centres undefined)
18 µM: HCT-15
inactive: 786-0 14.6 µM | A498 16.3 µM | A549 22.3 µM | ACHN 27.6 µM | CAKI-1 31 µM | CCRF-CEM 12.9 µM | COLO 205 41.8 µM | DLD-1 25.5 µM | DMS-114 16.5 µM | EKVX 42.6 µM | HCC 2998 20.3 µM | HL-60 19.8 µM | HOP-18 48.4 µM | HOP-62 61.5 µM | HT-29 26.6 µM | IGROV-1 23.4 µM | K562 13.4 µM | KM-20L2 34.3 µM | KM12 18.4 µM | LOX IMVI 15.3 µM | LXFL 529 12.1 µM | M14 28.3 µM | M19-MEL 18.6 µM | MOLT-4 15.1 µM | Malme-3M 50.8 µM | NCI-H226 44.6 µM | NCI-H23 19.5 µM | NCI-H460 36.9 µM | NCI-H522 20.1 µM | OVCAR-3 24.7 µM | OVCAR-4 23.7 µM | OVCAR-5 44.5 µM | OVCAR-8 22.5 µM | RPMI-8226 15.6 µM | RXF 393 12.1 µM | RXF 631 24.5 µM | SF-268 24.4 µM | SF-295 27.4 µM | SF-539 26.2 µM | SK-MEL-28 29 µM | SK-MEL-2 30.3 µM | SK-MEL-5 17.1 µM | SK-OV-3 89.9 µM | SN12C 25.5 µM | SNB-19 23 µM | SNB-75 21.4 µM | SW-620 20 µM | TK-10 34.8 µM | UACC-257 28.6 µM | UACC-62 32.8 µM | UO-31 18.9 µM | XF498 19 µM
